Results as given in patent US8877769B2, “Heteroaryl-substituted urea modulators of fatty acid amide hydrolase” (Janssen Pharmaceutica NV, priority 2008, dated 2014).

Columns and labels:
FAAH = target: T1, FAAH (Homo sapiens, UniProt O00519); experiment: Assay Method 1: FAAH assay, 3H-anandamide hydrolysis in cell homogenate
T1 sequence (O00519 1-579): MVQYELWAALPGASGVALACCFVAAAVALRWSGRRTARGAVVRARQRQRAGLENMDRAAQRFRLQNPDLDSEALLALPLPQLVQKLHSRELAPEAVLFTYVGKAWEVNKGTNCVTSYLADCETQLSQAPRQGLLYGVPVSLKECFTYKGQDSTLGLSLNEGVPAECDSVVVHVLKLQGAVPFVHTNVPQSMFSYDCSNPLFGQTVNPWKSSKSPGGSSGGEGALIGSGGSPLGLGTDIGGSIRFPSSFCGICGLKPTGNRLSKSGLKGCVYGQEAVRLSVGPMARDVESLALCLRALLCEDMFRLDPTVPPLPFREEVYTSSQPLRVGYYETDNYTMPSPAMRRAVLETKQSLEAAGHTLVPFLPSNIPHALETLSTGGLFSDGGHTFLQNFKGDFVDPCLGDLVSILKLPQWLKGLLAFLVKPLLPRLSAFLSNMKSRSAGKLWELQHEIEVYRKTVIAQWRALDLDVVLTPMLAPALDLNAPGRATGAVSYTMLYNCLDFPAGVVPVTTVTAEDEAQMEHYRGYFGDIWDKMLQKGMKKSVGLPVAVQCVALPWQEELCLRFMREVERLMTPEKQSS
Method: The assay mixture consisted of 50 μL of the cell homogenate, 10 μL of the test compound, and 40 μL of anandamide [1-^3H-ethanolamine] (^3H-AEA, Perkin-Elmer, 10.3 Ci/mmol), which was added last, for a final tracer concentration of 80 nM. The reaction mixture was incubated at rt for 1 h. During the incubation, 96-well Multiscreen filter plates (catalog number MAFCNOB50; Millipore, Bedford, Mass., USA) were loaded with 25 μL of activated charcoal (Multiscreen column loader, catalog number MACL09625, Millipore) and washed once with 100 μL of MeOH. […] After the 1 h incubation, 60 μL of the reaction mixture were transferred to the charcoal plates, which were then assembled on top of the DYNEX plates using Centrifuge Alignment Frames (catalog number MACF09604, Millipore). The unbound labeled ethanolamine was centrifuged through to the bottom plate (5 min at 2000 rpm), which was preloaded with the scintillant, as described above. The plates were sealed and left at rt for 1 h before counting on a Hewlett Packard TopCount. • Assay Method 2

Rat FAAH = target: T2, Rat FAAH (Rattus norvegicus, UniProt P97612); experiment: Assay Method 2: FAAH assay, 3H-anandamide hydrolysis in cell homogenate; assay type: biochemical; settings: average of results obtained, > value = solubility limit or highest concentration tested
T2 construct: expressed in transfected cells
T2 sequence (P97612 1-579): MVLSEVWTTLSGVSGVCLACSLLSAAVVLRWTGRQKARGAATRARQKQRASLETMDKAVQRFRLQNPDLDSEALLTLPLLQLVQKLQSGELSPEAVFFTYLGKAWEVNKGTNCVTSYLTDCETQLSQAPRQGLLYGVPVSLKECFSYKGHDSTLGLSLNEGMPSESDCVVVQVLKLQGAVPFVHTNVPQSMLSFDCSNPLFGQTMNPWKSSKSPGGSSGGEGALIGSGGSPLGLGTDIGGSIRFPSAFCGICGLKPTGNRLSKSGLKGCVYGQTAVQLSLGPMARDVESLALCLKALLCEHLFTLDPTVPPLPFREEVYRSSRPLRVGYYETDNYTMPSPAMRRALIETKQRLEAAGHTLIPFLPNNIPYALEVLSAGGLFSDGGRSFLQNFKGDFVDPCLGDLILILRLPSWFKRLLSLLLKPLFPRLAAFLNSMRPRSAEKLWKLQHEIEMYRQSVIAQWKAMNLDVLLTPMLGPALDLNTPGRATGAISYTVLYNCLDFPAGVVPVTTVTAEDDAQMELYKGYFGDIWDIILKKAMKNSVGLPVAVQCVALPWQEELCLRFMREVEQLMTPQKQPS
Method: A. Transfection of Cells with Rat FAAH
The assay mixture consisted of 50 μL of the cell homogenate, 10 μL of the test compound, and 40 μL of anandamide [1-^3H-ethanolamine] (^3H-AEA, Perkin-Elmer, 10.3 Ci/mmol), which was added last, for a final tracer concentration of 80 nM. The reaction mixture was incubated at rt for 1 h. During the incubation, 96-well Multiscreen filter plates (catalog number MAFCNOB50; Millipore, Bedford, Mass., USA) were loaded with 25 μL of activated charcoal (Multiscreen column loader, catalog number MACL09625, Millipore) and washed once with 100 μL of MeOH. […] After the 1 h incubation, 60 μL of the reaction mixture were transferred to the charcoal plates, which were then assembled on top of the DYNEX plates using Centrifuge Alignment Frames (catalog number MACF09604, Millipore). The unbound labeled ethanolamine was centrifuged through to the bottom plate (5 min at 2000 rpm), which was preloaded with the scintillant, as described above. The plates were sealed and left at rt for 1 h before counting on a Hewlett Packard TopCount.

| IC50 (FAAH) [nM] | IC50 (Rat FAAH) [nM] | Structure (SMILES) |
| --- | --- | --- |
| 1300 | 120 | O=C(Nc1cccn2ccnc12)N1CCN(Cc2ccc(OC(F)(F)F)c(Cl)c2)CC1 [Example 53, 4-(3-Chloro-4-trifluoromethoxy-benzyl)-piperazine-1-carboxylic acid imidazo[1,2-a]pyridin-8-ylamide] |
| 84 | 5000 | N#Cc1ccnc(Oc2cccc(CN3CCN(C(=O)Nc4cnc5[nH]ccc5c4)CC3)c2)c1 [Example 78, 4-[3-(4-Cyano-pyridin-2-yloxy)-benzyl]-piperazine-1-carboxylic acid (1H-pyrrolo[2,3-b]pyridin-5-yl)-amide] |
| 67 | 38 | O=C(Nc1cccc2nccn12)N1CCN(Cc2ccc(OC(F)(F)F)c(Cl)c2)CC1 [Example 70, 4-(3-Chloro-4-trifluoromethoxy-benzyl)-piperazine-1-carboxylic acid imidazo[1,2-a]pyridin-5-ylamide] |
| 300 | 2300 | N#Cc1ccc(Oc2cccc(CN3CCN(C(=O)Nc4noc5ncccc45)CC3)c2)cc1 [Example 32, 4-[3-(4-Cyano-phenoxy)-benzyl]-piperazine-1-carboxylic acid isoxazolo[5,4-b]pyridin-3-ylamide] |
| > 10000 | > 10000 | O=C(Nc1ccc2nccn2c1)N1CCN(Cc2ccc3c(c2)OC(F)(F)O3)CC1 [Example 51, 4-(2,2-Difluoro-benzo[1,3]dioxol-5-ylmethyl)-piperazine-1-carboxylic acid imidazo[1,2-a]pyridin-6-ylamide] |
| 34 | 53 | O=C(Nc1noc2ncccc12)N1CCN(Cc2cccc(Oc3ccc(Br)cc3)c2)CC1 [Example 24, 4-[3-(4-Bromo-phenoxy)-benzyl]-piperazine-1-carboxylic acid isoxazolo[5,4-b]pyridin-3-ylamide] |
| > 10000 | > 10000 | O=C(Nc1nc2ccccc2o1)N1CCN(Cc2ccc(OC(F)(F)F)c(Cl)c2)CC1 [Example 67, 4-(3-Chloro-4-trifluoromethoxy-benzyl)-piperazine-1-carboxylic acid benzooxazol-2-ylamide] |
| > 10000 | > 10000 | N#Cc1ccc(Oc2cccc(CN3CCN(C(=O)Nc4noc5ncccc45)CC3)c2)cc1C(F)(F)F [Example 19, 4-[3-(4-Cyano-3-trifluoromethyl-phenoxy)-benzyl]-piperazine-1-carboxylic acid isoxazolo[5,4-b]pyridin-3-ylamide] |
| 62 | 110 | O=C(Nc1cnc2cccnn12)N1CCN(Cc2ccc(Cl)c(Cl)c2)CC1 [Example 2, 4-(3,4-Dichloro-benzyl)-piperazine-1-carboxylic acid imidazo[1,2-b]pyridazin-3-ylamide] |
| 16 | 9 | O=C(Nc1cnc2[nH]ccc2c1)N1CCN(Cc2ccc3c(c2)OC(F)(F)O3)CC1 [Example 44, 4-(2,2-Difluoro-benzo[1,3]dioxol-5-ylmethyl)-piperazine-1-carboxylic acid (1H-pyrrolo[2,3-b]pyridin-5-yl)-amide] |
| 14 | 35 | O=C(Nc1nocc1Cl)N1CCC(Cc2cnc3ccccc3c2)CC1 [Example 84, 4-Quinolin-3-ylmethyl-piperidine-1-carboxylic acid (4-chloro-isoxazol-3-yl)-amide] |
| 370 | 3000 | O=C(Nc1noc2ncccc12)N1CCN(Cc2ccc(Br)c(Br)c2)CC1 [Example 25, 4-(3,4-Dibromo-benzyl)-piperazine-1-carboxylic acid isoxazolo[5,4-b]pyridin-3-ylamide] |
| > 10000 | > 10000 | O=C(Nc1noc2ncccc12)N1CCN(Cc2ccc3cc[nH]c3c2)CC1 [Example 9] |
| 48 | 2000 | N#Cc1cccnc1Oc1cccc(CN2CCN(C(=O)Nc3cnc4[nH]ccc4c3)CC2)c1 [Example 77, 4-[3-(3-Cyano-pyridin-2-yloxy)-benzyl]-piperazine-1-carboxylic acid (1H-pyrrolo[2,3-b]pyridin-5-yl)-amide] |
| 250 | 112 | O=C(Nc1noc2cccnc12)N1CCN(Cc2ccc(Cl)c(Cl)c2)CC1 [Example 43, 4-(3,4-Dichloro-benzyl)-piperazine-1-carboxylic acid isoxazolo[4,5-b]pyridin-3-ylamide] |
| 460 | 3000 | O=C(Nc1noc2ncccc12)N1CCN(Cc2ccc(Cl)c(Cl)c2)CC1 [Example 13, 4-(3,4-Dichloro-benzyl)-piperazine-1-carboxylic acid isoxazolo[5,4-b]pyridin-3-ylamide] |
| 15 | 30 | O=C(Nc1cnc2cccnn12)N1CCC(Cc2ccc(Cl)c(Cl)c2)CC1 [Example 83, 4-(3,4-Dichlorobenzyl)-N-imidazo[1,2-b]pyridazin-3-ylpiperidine-1-carboxamide] |
| 3000 | > 10000 | O=C(Nc1noc2ncccc12)N1CCN(Cc2cc3ccccc3o2)CC1 [Example 31, 4-Benzofuran-2-ylmethyl-piperazine-1-carboxylic acid isoxazolo[5,4-b]pyridin-3-ylamide] |
| 22 | 270 | N#Cc1ccc(Oc2cccc(CN3CCN(C(=O)Nc4cnc5[nH]ccc5c4)CC3)c2)nc1 [Example 79, 4-[3-(5-Cyano-pyridin-2-yloxy)-benzyl]-piperazine-1-carboxylic acid (1H-pyrrolo[2,3-b]pyridin-5-yl)-amide] |
| 2000 | > 10000 | O=C(Nc1noc2ncccc12)N1CCN(Cc2cccc(OCc3ccccc3)c2)CC1 [Example 21, 4-(3-Benzyloxy-benzyl)-piperazine-1-carboxylic acid isoxazolo[5,4-b]pyridin-3-ylamide] |
| 1000 | 6000 | O=C(Nc1ccnc2[nH]ccc12)N1CCN(Cc2cccc(Oc3ccc(Cl)cc3)c2)CC1 [Example 61, 4-[3-(4-Chloro-phenoxy)-benzyl]-piperazine-1-carboxylic acid (1H-pyrrolo[2,3-b]pyridin-4-yl)-amide] |
| 6000 | > 10000 | O=C(Nc1noc2ncccc12)N1CCN(Cc2cc3ccccc3s2)CC1 [Example 28, 4-Benzo[b]thiophen-2-ylmethyl-piperazine-1-carboxylic acid isoxazolo[5,4-b]pyridin-3-ylamide] |
| 6000 | > 10000 | O=C(Nc1noc2ncccc12)N1CCN(Cc2cccc(Oc3ccc4ncccc4c3)c2)CC1 [Example 18, 4-[3-(Quinolin-6-yloxy)-benzyl]-piperazine-1-carboxylic acid isoxazolo[5,4-b]pyridin-3-ylamide] |
| > 10000 | > 10000 | O=C(Nc1noc2ncccc12)N1CCN(Cc2ccc(Br)cc2)CC1 [Example 11, 4-(4-Bromo-benzyl)-piperazine-1-carboxylic acid isoxazolo[5,4-b]pyridin-3-ylamide] |
| > 10000 | > 10000 | O=C(Nc1noc2ncccc12)N1CCN(Cc2cccc(Oc3ccc(S(=O)(=O)C(F)(F)F)cc3)c2)CC1 [Example 22, 4-[3-(4-Trifluoromethanesulfonyl-phenoxy)-benzyl]-piperazine-1-carboxylic acid isoxazolo[5,4-b]pyridin-3-ylamide] |
| > 10000 | > 10000 | O=C(Nc1noc2ncccc12)N1CCN(Cc2cnc3ccccc3c2)CC1 [Example 10, 4-Quinolin-3-ylmethyl-piperazine-1-carboxylic acid isoxazolo[5,4-b]pyridin-3-ylamide] |
